Patent US9322034B2, “Compositions and methods for detecting and modulating cell death by a translation regulated gene expression system” (Wayne State University, priority 2007, dated 2016)

Experiments:
Format in all cases: cell-based, human
[1] = test system: HEK293 TRplp-EYFP and TRplp-fLUC colonies; experiment: Microplate reader screen at fixed time and toxin concentration; conditions: 12 hr
Description: For this example, HEK293 cells expressing the TRplp-EYFP, TRdm-EYFP, TRplp fLUC and TRdm-fLUC expression cassettes are evaluated using a microplate reader. To quantitate the TR translational response, 24,000 cells are plated in a 96-well microtiter plates and allowed to grow for about 40 hr to achieve the proper cell density prior to incubation with a toxic agent. Each well is cultured with complete DMEM medium containing either no toxin or a defined concentration of toxin and incubated at 37 C for specific time periods. At that time, fluorescence or chemiluminescence on a FLUOstar Optima (BMG Labtech) microplate reader is used measure TR-ORF response.
Direct detection of the spontaneously fluorescent EYFP protein fluorophore is achieved by excitation of samples in black optical bottom 96-well trays with a fluorescein filter (545 nm) or a YFP filter (YFPex) and emission measured at 590 nm or 544 nm using gains of 1000-2000. To reduce the background fluorescence associated with media components, the trays are centrifuged at 1200 rpm, RT for 3 min to collect any floating cells, and the media replaced with 200 microliters of 1×PBS prior to detection. For the fLUC protein, protein activity is quantified by luminescence produced during live cell or lysed cell luciferase assays. […] Luminescence was detected using lens filter at gains of 2000-3000. […]

[2] = test system: HEK293 cells expressing the TRplp-fLUC or TRdm-fLUC expression cassette; experiment: Cytotoxicity assay by Western blot, monocistronic TR-fLUC cassettes
Description: For this example, expression and regulation of the TRplp-EYFP, TRdm-EYFP, TRplp-fLUC, or TRdm-fLUC expression cassettes in stably transformed HEK293 cells are validated using Western blot analysis. Cell lines or pools are grown in six-well trays or 60 mm dishes to about 60% confluence and treated with complete medium supplemented with a toxic chemical. […] Control samples are treated with fresh medium. Treated and control cells were removed by pipette, collected in media, pelleted for 5 min at 800 rpm (room temperature), and either stored at −70/−80° C. or immediately processed for total proteins.
For protein extraction, cells are resuspended in equal volumes of Suspension Buffer (100 mM NaCl, 10 mM Tris-HCl [pH 7.6], 1 mM EDTA, 1 mg/mL aprotinin, 100 μg/mL PMSF) and 2×SDS Buffer (100 mM Tris-HCl [pH 6.8], 4% SDS, 20% glycerol, 200 mM DTT). Frozen cells are thawed on ice prior to resuspension. The extracts are homogenized by several passages through a syringe fitted with a 26 G needle. Samples are subsequently incubated at RT for 1-2 hr. Samples are transferred to −70/−80° C. for storage or applied to an SDS PAGE gel and examined by Western blot analysis.
To insure equal protein loading levels on Western blots, 10 μL of each protein extract are initially resolved by SDS PAGE, fixed overnight in Preblot gel fixer (25% isopropanol, 10% acetic acid), and stained in 0.05% Coomassie blue (0.05% brilliant blue R, 50% methanol, 10% acetic acid) for 20 min, RT. Gels are destained in 10% acetic acid and dried under vacuum. Using the dried gels, any necessary volume adjustment was made to samples prior to Western blotting.
Western blot analysis is a well established technique in the art and is summarized in the following. Following SDS PAGE gel resolution and protein transfer to a solid membrane support by electrophoresis, the membranes are dried overnight. […] Similarly, fLUC protein is detected using an anti-fLUC antibody (Sigma; 1:1000 dilution). After incubation with a primary antibody and extensive washing (1×PBS-T), proteins binding the primary antibody are detected by incubation with a horseradish peroxidase (HRP) conjugated anti-rabbit or anti-mouse antibody (Amersham; 1:5000 to 1:10000 dilution). Following incubation with the secondary antibody and extensive washing, reactive proteins are detected with the ECL reagent system (Amersham) as described by the vendor.
Following treatment with toxic levels of the calcium ionophore A23187, highly significant increases in fLuc protein levels are observed in the stressed and dying cells that were not evident in untreated cultures. Individual protein bands are quantitated by densitometry on a Beckman DU7400 spectrophotometer.

[3] = test system: HEK293 cells transduced with rBAC TRplp-EYFP / TRdm-EYFP; experiment: TR-EYFP translation after rBAC transduction; conditions: 5 μM, 24 hr
Description: This example is to show delivery of the TRplp-EYFP and TRdm-EYFP cassettes to HEK293 cells using rBAC transduction. HEK293 cells are plated on flame sterilized glass slides and grown until 60-70% confluent (1-2 days), washed with serum-free DMEM, and infected with rBAC for 1-2 hr. The medium is replaced with DMEM, 10% FBS and the cells incubated for 24 hours. Infected cells were treated with DMEM, 10% FBS supplemented with 5 μM calcium ionophore A23187 for 24 hr prior to direct microscopic examination.

CNc1ccc2oc(C[C@H]3O[C@@]4(CC[C@H]3C)O[C@H]([C@H](C)C(=O)c3ccc[nH]3)[C@H](C)C[C@H]4C)nc2c1C(=O)O [calcium ionophore A23187]
TR response in screening assay ([1]; HEK293 TRplp-EYFP subclone #41, 6.7 micromolar): significant TR responses | TR response in screening assay ([1]; HEK293 TRplp-fLUC subclone #3, 6.7 micromolar, live cell assay): significant TR responses | average increase in fLuc protein levels in stressed and dying cells ([2]; HEK293 TRdm-fLuc cells, n=6): 524.3% | average increase in fLuc protein levels in stressed and dying cells ([2]; HEK293 TRplp-fLuc expressing cells, n=5): 402.8% | increases in fLUC protein levels, % of the protein levels detected in untreated TRplp-fLUC/TRdm-fLUC cells ([2]; cell pools and lines, toxic levels (5-6.7 micromolar), densitometry of Western blot): 160-800% | fLUC protein levels in stressed and dying TR-fLUC cells, % of the protein levels of cells expressing cap-dependent CMV-fLuc ([2]; toxin-treated cells, FIG. 6): ≤ 110% | translation of EYFP in rBAC transduced cells compared to uninfected control cells [3]: exhibit selective translation of the fluorescent EYFP protein
